# Reference: patent US20130029981A1, “COMPOUNDS, COMPOSITIONS, AND METHODS FOR CONTROLLING BIOFILMS” (Katholieke Universiteit Leuven, priority 2009, published 2013)
# Read-outs that look alike come from different tables or passages of the source.
# Columns and labels:
# [1] = test system: Pseudomonas aeruginosa PA14; test: Static peg assay for prevention of biofilm formation (Calgary device, crystal violet); format: cell-based
# Protocol: (§1) Evaluation of the biofilm inhibitory activity of some substituted 2-amino-1H-imidazoles of the invention was carried out by growing up biofilms of S. Typhimurium ATCC14028 or SL1344 or Pseudomonas aeruginosa PA14 in the presence of different concentrations (1/2 dilution series) of biofilm inhibitors, by using the Calgary biofilm device. After an incubation period of 24 hours at 25° C. or 37° C. or 48 hours at 16° C. the biofilms were visualized by crystal violet staining. In the next step the stain was extracted from the biofilm with 30% acetic acid. The absorbance of the resolubilized stain at 570 nm is a measure of the amount of biofilm formed.
# The device used for Pseudomonas aeruginosa biofilm formation is the same platform carrying polystyrene pegs as described above for Salmonella Typhimurium.
# Two-fold serial dilutions of the compounds in 100 μl liquid broth per well were prepared in the microtiter plate. Subsequently, an overnight culture of P. aeruginosa PA14 (grown up in TSB medium) was diluted 1:100 into liquid broth and 100 μl was added to each well of the microtiter plates, resulting in a total amount of 200 μl medium per well. The pegged lid was placed on the microtiter plate and the plate was incubated for 24 hours at 25° C., 30° C. or 37° C. without shaking. During this incubation period biofilms were formed on the surface of the pegs. The liquid broth used for the tests at 25° C. was TSB 1/20. The tests at 37° C. were performed in CFA and/or LBNS broth. During incubation at 30° C. and 37° C. the plates were placed in a humidity controlled container to prevent evaporation of the growth medium. Quantification of biofilm formation was performed similarly as described previously for the S. Typhimurium biofilm assays.
# as §1, with “imidazo[1,2-a]pyrimidinium bromide salts” for “2-amino-1H-imidazoles”
# as §1, with “substituted imidazo[1,2-a]-pyrimidinium bromide and perchlorate salts produced according to examples 3 and 5” for “substituted 2-amino-1H-imidazoles of the invention”, “C.” for “C. or 37° C. or 48 hours at 16° C.”, “nm was taken as” for “nm is”
# [2] = test system: S. Typhimurium ATCC14028; test: as above; format: cell-based, Salmonella Typhimurium
# Protocol: as §1
# In examples 2 and 3, the following materials and methods were used.
# The device used for biofilm formation is a platform carrying 96 polystyrene pegs (Nunc no. 445497) that fits as a microtiter plate lid with a peg hanging into each microtiter plate well (Nunc no. 269789). Biofilm formation assays were carried out at 16° C., 25° C. and 37° C.
# For biofilm assays at 16° C. and 25° C., two-fold serial dilutions of the compounds in 100 μl liquid TSB 1/20 broth per well were prepared in the microtiter plate. Subsequently, an overnight culture of S. Typhimurium ATCC14028 or SL1344 (grown up in LB medium) was diluted 1:100 into TSB 1/20 broth and 100 μl (ca. 10^6 cells) was added to each well of the microtiter plates, resulting in a total amount of 200 μl medium per well. The pegged lid was placed on the microtiter plate and the plate was incubated for 48 hours at 16° C. or for 24 hours at 25° C. without shaking. During this incubation period biofilms were formed on the surface of the pegs. In case of the assay at 16° C., after 24 hours the lid was transferred into a new plate with medium and the specific molecules used for testing. […] For quantification of biofilm formation, the pegs were washed once in 200 μl phosphate buffered saline (PBS). The remaining attached bacteria were stained for 30 minutes with 200 μl 0.1% (w/v) crystal violet in an isopropanol/methanol/PBS solution (v/v 1:1:18). Excess stain was rinsed off by placing the pegs in a 96-well plate filled with 200 μl distilled water per well. After the pegs were air dried (30 min), the dye bound to the adherent cells was extracted with 30% glacial acetic acid (200 μl). The OD570 of each well was measured using the VERSAmax microtiter plate reader. The IC50 value for each compound was determined from concentration gradients in two or three independent experiments (with 2 or 3 repeats per experiment), by using the GraphPad software of Prism.
# For biofilm assays at 37° C., two-fold serial dilutions of the compounds in 50 μl liquid CFA broth per well were prepared in the microtiter plate. Subsequently, an overnight culture of S. Typhimurium ATCC 14028 was diluted 1:100 into CFA broth and 100 μl (ca. 10^6 cells) was added to each well of the microtiter plates, resulting in a total amount of 150 μl medium per well. The pegged lid was placed on the microtiter plate and the plate was incubated for 24 hours at 37° C. without shaking. During incubation the plates were placed in a humidity controlled container to prevent evaporation of the growth medium. Quantification of biofilm formation was performed similarly as described above for the assays at 16° C. and 25° C.
# as §1, with “imidazo[1,2-a]pyrimidinium bromide salts” for “2-amino-1H-imidazoles”
# [3] = 25° C., 24 hours, Table 15, read-out: (2) IC50 (biofilm inhibition)
# [4] = 25° C., Table 16, read-out: P. aeruginosa IC50 (biofilm formation)
# [5] = 25° C., 24 hours, Table 15, read-out: (1) IC50 (biofilm inhibition)
# [6] = 25° C., Table 16, read-out: S. Typhimurium IC50 (biofilm formation)
# [7] = Pseudomonas aeruginosa, PA14, 24 h, read-out: (2) IC50 (biofilm inhibition)
# [8] = Salmonella enterica, 24 h, read-out: (1) IC50 (biofilm inhibition)
SMILES,"IC50 [1, 3]","IC50 [1, 4]","IC50 [2, 5]","IC50 [2, 6]",further results
CCCCCCCN1c2nccc[n+]2CC1(O)c1ccc(Cl)cc1 (racemic) [Compound 20],~12.5 µM,36.9 µM,6.67 µM,6.7 µM,–
CCCCCCCCN1c2nccc[n+]2CC1(O)c1ccc(Cl)cc1 (racemic) [Compound 21],11.7 µM,21.7 µM,6.98 µM,7 µM,–
CCCCCCCCCN1c2nccc[n+]2CC1(O)c1ccc(Cl)cc1 (racemic) [Compound 22],60.5 µM,21 µM,18.3 µM,18.3 µM,–
CCCCCCCCCCN1c2nccc[n+]2CC1(O)c1ccc(Cl)cc1 (racemic) [Compound 23],193 µM,66.4 µM,51.3 µM,51.3 µM,–
CCCCCCCCCCCN1c2nccc[n+]2CC1(O)c1ccc(Cl)cc1 (racemic) [Compound 24],205 µM,> 800 µM,61.9 µM,61.9 µM,–
CCCCCCCCCCCCN1c2nccc[n+]2CC1(O)c1ccc(Cl)cc1 (racemic) [Compound 25],119 µM,> 800 µM,122 µM,122 µM,–
CCCCCCCCCCCCCN1c2nccc[n+]2CC1(O)c1ccc(Cl)cc1 (racemic) [Compound 26],59 µM,> 800 µM,316 µM,316 µM,–
CCCCCCCCCCCCCCN1c2nccc[n+]2CC1(O)c1ccc(Cl)cc1 (racemic) [Compound 27],–,> 800 µM,–,> 800 µM,–
CCN1c2nccc[n+]2CC1(O)c1ccc([N+](=O)[O-])cc1 (racemic) [Compound 29],–,> 800 µM,–,579 µM,–
CC(C)N1c2nccc[n+]2CC1(O)c1ccc([N+](=O)[O-])cc1 (racemic) [Compound 30],–,192 µM,–,466 µM,–
"CCCCCCCC[n+]1c(-c2cccc3ccccc23)cn2cccnc21.[O-][Cl+3]([O-])([O-])[O-] [1-octyl-2-(1-naphthalenyl)-imidazo[1,2-a]-pyrimidin-1-ium perchlorate]",–,–,–,–,"IC50 [1, 7]: 6.83 µM; IC50 [2, 8]: ~6.6 µM"
"CCCCCCCC[n+]1c(-c2ccc(S(C)(=O)=O)cc2)cn2cccnc21.[O-][Cl+3]([O-])([O-])[O-] [1-octyl-2-(4-methylsulfonylphenyl)-imidazo[1,2-a]pyrimidin-1-ium perchlorate]",–,–,–,–,"IC50 [1, 7]: 49.6 µM; IC50 [2, 8]: 82 µM"
"CCCCCCCC[n+]1c(-c2ccc(-c3ccc([N+](=O)[O-])cc3)cc2)cn2cccnc21.[O-][Cl+3]([O-])([O-])[O-] [1-octyl-2-(4′-nitro[1,1-biphenylyl]-4-yl)-imidazo[1,2-a]pyrimidin-1-ium perchlorate]",1.04 µM,–,1.49 µM,–,–
"CCCCCCCC[n+]1c(-c2ccc(Cl)c(Cl)c2)cn2cccnc21.[O-][Cl+3]([O-])([O-])[O-] [2-(3,4-Dichlorophenyl)-1-octylimidazo[1,2-a]pyrimidin-1-ium perchlorate]",–,–,–,–,"IC50 [1, 7]: 12.7 µM; IC50 [2, 8]: 3.84 µM"
"CCCCCCCC[n+]1c(-c2cccc(Br)c2)cn2cccnc21.[O-][Cl+3]([O-])([O-])[O-] [2-(3-Bromophenyl)-1-octylimidazo[1,2-a]pyrimidin-1-ium perchlorate]",–,–,–,–,"IC50 [1, 7]: 7 µM; IC50 [2, 8]: 7.33 µM"
"CCCCCCCC[n+]1c(-c2ccc(F)cc2)cn2cccnc21.[O-][Cl+3]([O-])([O-])[O-] [2-(4-Fluorophenyl)-1-octylimidazo[1,2-a]pyrimidin-1-ium perchlorate]",–,–,–,–,"IC50 [1, 7]: 19.5 µM; IC50 [2, 8]: 35.7 µM"
"CCCCCCCC[n+]1c(-c2ccc(OC)cc2)cn2cccnc21.[O-][Cl+3]([O-])([O-])[O-] [2-(4-Methoxyphenyl)-1-octylimidazo[1,2-a]pyrimidin-1-ium perchlorate]",–,–,–,–,"IC50 [1, 7]: 8.73 µM; IC50 [2, 8]: 34.8 µM"
"CCCCCCCC[n+]1c(-c2ccc(SC)cc2)cn2cccnc21.[O-][Cl+3]([O-])([O-])[O-] [2-(4-Methylthiophenyl)-1-octylimidazo[1,2-a]pyrimidin-1-ium perchlorate]",–,–,–,–,"IC50 [1, 7]: 9.29 µM; IC50 [2, 8]: 20.7 µM"
CCCCN1c2nccc[n+]2CC1(O)c1ccc([N+](=O)[O-])cc1 (centres unmarked) [Compound 31],–,145 µM,–,293 µM,–
CC(C)CN1c2nccc[n+]2CC1(O)c1ccc([N+](=O)[O-])cc1 (centres unmarked) [Compound 32],–,192 µM,–,322 µM,–
CC(C)(C)N1c2nccc[n+]2CC1(O)c1ccc([N+](=O)[O-])cc1 (centres unmarked) [Compound 33],–,41.5 µM,–,211 µM,–
CCCCCCCCN1c2nccc[n+]2CC1(O)c1ccc([N+](=O)[O-])cc1 (centres unmarked) [Compound 35],7.65 µM,19.7 µM,6.62 µM,6.6 µM,–
CCCCCCCCCCN1c2nccc[n+]2CC1(O)c1ccc([N+](=O)[O-])cc1 (centres unmarked) [Compound 36],–,22.3 µM,9.95 µM,9.9 µM,–
CCCCCCCCN1c2nccc[n+]2CC1(O)c1ccc(F)cc1 (centres unmarked) [Compound 39],7.12 µM,108 µM,7.58 µM,7.6 µM,–
CCCCCCCCN1c2nccc[n+]2CC1(O)c1ccc(OC)cc1 (centres unmarked) [Compound 46],13.6 µM,90.2 µM,10.5 µM,10.5 µM,–
CCCCCCCCN1c2nccc[n+]2CC1(O)c1ccc(Cl)c(Cl)c1 (centres unmarked) [Compound 49],~12.3 µM,11.6 µM,7.09 µM,7.1 µM,–
CCCCCCCCN1c2nccc[n+]2CC1(O)c1ccc(SC)cc1 (centres unmarked) [Compound 51],29 µM,–,~13.2 µM,–,"IC50 ([1]; 25° C., Table 17, read-out: P. aeruginosa IC50 (biofilm formation)): 36.5 µM; IC50 ([2]; 25° C., Table 17, read-out: S. Typhimurium IC50 (biofilm formation)): ~13.2 µM"
CCCCCCCCN1c2nccc[n+]2C[C@@]1(O)c1cccc2ccccc12 [Compound 52],–,–,–,–,"IC50 ([1]; Pseudomonas aeruginosa, PA14, 25° C., Table 17, read-out: P. aeruginosa IC50 (biofilm formation)): 15.1 µM; IC50 ([1]; Pseudomonas aeruginosa, PA14, 24 h, 25° C., 24 hours, Table 15, read-out: (2) IC50 (biofilm inhibition)): 16.7 µM; IC50 ([2]; Salmonella enterica, 25° C., 24 hours, Table 15, read-out: (1) IC50 (biofilm inhibition)): 14.7 µM; IC50 ([2]; Salmonella enterica, 25° C., Table 17, read-out: S. Typhimurium IC50 (biofilm formation)): 14.7 µM"
